Reference: article PMC9106035, “Synthesis, X-ray Structure and Biological Studies of New Self-Assembled Cu(II) Complexes Derived from s-Triazine Schiff Base Ligand” (Molecules, 2022)

Experiments:
[1] = test system: A. fumigatus (RCMB 002008); assay: Agar well diffusion, inhibition zone; format: cell-based; conditions: 10 mg/mL of the tested compounds
Protocol: (§1) The antimicrobial activity of the free ligands and the corresponding Cu(II) complexes was determined against different categories of microbes (Table 5). All inhibition zones were determined at 10 mg/mL of the tested compounds. […] The largest inhibition zones were found for B. subtilis (25 mm), which is very close to the standard Gentamycin (26 mm). […] Complex 1 evidenced antimicrobial activity against all microbes except C. albicans.
(§2) Method S2: Antimi crobial studies a) Tested pathogenic microbes
(§3) The antibacterial a ctivity of the studied ligands and their Cu(II) complexes were evaluated against two Gram positive bacteria ((S. aureus (ATCC 25923) and B. subtilis (RCMB015(1)NRR LB-543)), two Gram negatvie bacteria ((E. coli (ATCC 25922) and P. vulgaris (RCMB 004(1)ATCC 13315)) and two fungi ((A. fumigatus […]
was used as standard antibacterial agent. The samples maintained in Brain heart infusion (BHI) at 20 °C; […] of each stock–c ulture was added to 3 mL of BHI […]
broth. […]
(§4) 0.5). In case of fungi A. fumigatus (RCMB 002008) and C. albicans (RCMB 005003(1) ATCC 10231), the used medium in antagonistic activity against tested fungi is Potato Dextrose Agar, where Fluconazole was used standard antifungal agent. b) Agar well diffusion method
(§5) Synthetic compounds were prepared at concentration 10 mg/mL dissolved in DMSO as stock solutions. Preparation of sterilized Mueller Hinton agar plates seeded with tested pathogenic b acteria occurred. The wells are done by sterilized cork borer in size […]
(§6) comparably with DMSO as control. The plates were incubated at 37°C for 24 h. after incubation period; antimicrobial activity was d etermined by inhibition zones. […]

[2] = test system: A. fumigatus (RCMB 002008); assay: Minimum Inhibitory Concentration (MIC); format: cell-based
Protocol: as §2
(§7) The antibacterial a ctivity of the studied ligands and their Cu(II) complexes were evaluated against two Gram positive bacteria ((S. aureus (ATCC 25923) and B. […]
0.5). In case of fungi A. fumigatus (RCMB 002008) and C. albicans (RCMB 005003(1) ATCC 10231), the used medium in antagonistic activity against tested fungi is Potato Dextrose Agar, where Fluconazole was used standard antifungal agent. […]
(§8) c) Minimum Inhibitory Concentration (MIC)
(§9) Different dilutions of the compounds are inoculat ed with tested pathogenic microbes.
(§10) After incubation period of 96 well microplate, the results are meas ured using microplate reader. To determine at what level the MIC endpoint is established; subculture of test samples at different concentrati ons occurred in nutrient agar plates.

E. coli (ATCC 25922) [3] = assay: Agar well diffusion, inhibition zone; format: cell-based; conditions: 10 mg/mL of the tested compounds
Protocol: as §1, §2, §3
(§11) was used as standard antibacterial agent. The samples maintained in Brain heart infusion (BHI) at 20 °C; […] of each stock–c ulture was added to 3 mL of BHI broth. Overnight cultures were kept for 24 h at 37 °C ± 1 °C and the purity of cultures was checked aft er 24 h of incubation. […]
(§12) b) Agar well diffusion method
as §5, §6

[4] = test system: B. subtilis (RCMB015(1)NRR LB-543); assay: Agar well diffusion, inhibition zone; format: cell-based; conditions: 10 mg/mL of the tested compounds
Protocol: as §1, §2, §3, §11, §12, §5, §6

S. aureus (ATCC 25923) [5] = assay: Agar well diffusion, inhibition zone; format: cell-based; conditions: 10 mg/mL of the tested compounds
Protocol: as §1, §2, §3, §11, §12, §5, §6

[6] = test system: P. vulgaris (RCMB 004(1)ATCC 13315); assay: Agar well diffusion, inhibition zone; format: cell-based; conditions: 10 mg/mL of the tested compounds
Protocol: as §1, §2, §3, §11, §12, §5, §6

E. coli (ATCC 25922) [7] = assay: Minimum Inhibitory Concentration (MIC); format: cell-based
Protocol: as §2, §3, §11, §8, §9, §10

[8] = test system: B. subtilis (RCMB015(1)NRR LB-543); assay: Minimum Inhibitory Concentration (MIC); format: cell-based
Protocol: as §2, §3, §11, §8, §9, §10

S. aureus (ATCC 25923) [9] = assay: Minimum Inhibitory Concentration (MIC); format: cell-based
Protocol: as §2, §3, §11, §8, §9, §10

[10] = test system: P. vulgaris (RCMB 004(1)ATCC 13315); assay: Minimum Inhibitory Concentration (MIC); format: cell-based
Protocol: as §2, §3, §11, §8, §9, §10

[11] = test system: C. albicans (RCMB 005003(1) ATCC 10231); assay: Agar well diffusion, inhibition zone; format: cell-based; conditions: 10 mg/mL of the tested compounds
Protocol: as §1, §2, §7, §4, §5, §6

[12] = Cytotoxic activity on normal cells, MTT viability assay; format: cell-based, human; conditions: human, MRC-5 normal lung fibroblast cells; for viability at 24 h, 2.5 µM: sample conc. 2.5 µM; for viability at 24 h, 5 µM: sample conc. 5.0 µM; for viability at 24 h, 9.8 µM: sample conc. 9.8 µM; for viability at 24 h, 39.1 µM: sample conc. 39.1 µM; for CC50 at 24 h: MRC-5 cells, MTT
Protocol: In this regard, the selectivity index (SI) was calculated as the ratio of cytotoxic effect on the normal cell line to the cytotoxic effect on the cancer cell line.
Method S4 Evaluation of Cytotoxic activity
The cells were propagated in Dulbecco’s modified Eagle’s medium (DMEM) supplemented with 10% heat-inactivated fetal bovine serum, 1 % L-glutamine, HEPES buffer and 50µg/mL Gentamycin. All cells were maintained at 37 °C in a humidified atmosphere with 5% CO2 and were subcultured tw o times a week.
Cytotoxicity evaluation using viability assay
For cytotoxicity assay, the cells were seeded in 96-well plate at a cell concentration of 1×10^4 cells per well in 100µl of growth medium. Fresh medium containing different concentrations of the test sample was added after 24 h of seeding. Serial two-fold dilutions of the tested chemical compound were added to confluent cell monolayers dispensed into 96-well, flat-bottomed microtiter plates (Falcon, NJ, USA) using a multichannel pipette. The microtiter plates were incubated at 37 °C in a humidified incubator with 5% CO2 for a period of 24 h. Three wells were used for each concentration of the test sample. Control cells were incubated without test sample and with or without DMSO. The little percentage of DMSO present in the […]
cells for at 37°C, for 24 h, the viabl e cells yield was determined by the MTT test.
Briefly, the media was removed from the 96 well plate and replaced with 100 µL of fresh culture DMEM m edium without phenol red then 10 µL of the 12 mM MTT stock solution (5 mg of MTT in 1 mL of PBS) to each well including the untreated controls. The 96 well plates were then incubated at 37°C and 5% CO2 for 4 hours. An 85 µL aliquot of the media was removed from t he wells, and 50 µL of DMSO was added to each well and mixed thoroughly with the pipette and incubated at 37°C for 10 min. Then, the optical density was measured at 590 nm with the microplate reader (SunRise, TECAN, Inc, USA) to determine the number of viable cells and the percentage of viability was calculat ed as [(ODt/ODc)]x100% where ODt i s the mean optical density of wells treated with the tested s ample and ODc is the mean optical density of untreated cells. The relation between surviving cells and drug concentration is plotted to get the survival curve of each tumor cell line after treatment with the specified compound. The 50% inhibitory concentration (IC50), the concentration required to cause t oxic effects in 50% of intact cells, was estimated from graphic plots of the dose response curve for each conc. using Graphpad Prism software (San Diego, […]

Compound | Inhibition zone diameters [1] | Inhibition zone diameters (E. coli (ATCC 25922) [3]) [mm] | Inhibition zone diameters [4] [mm] | Inhibition zone diameters (S. aureus (ATCC 25923) [5]) [mm] | Inhibition zone diameters [6] [mm] | MIC (E. coli (ATCC 25922) [7]) [µg/mL] | MIC [8] [µg/mL] | MIC (S. aureus (ATCC 25923) [9]) [µg/mL] | MIC [10] [µg/mL] | Inhibition zone diameters [11] | CC50 at 24 h [12] [µM] | further results
CC(=NNc1nc(N2CCOCC2)nc(N2CCOCC2)n1)c1ccccc1[O-].CC(=O)[O-].[Cu+2] [Complex 2, [Cu(DMOT)(CH3COO)]] | 15 mm | 14 | 25 | 11 | 15 | 1250 | 39.06 | 1250 | 1250 | 10 mm |  | MIC [2]: 625 µg/mL
CC(=NNc1nc(N2CCOCC2)nc(N2CCOCC2)n1)c1ccccc1[O-].O=[N+]([O-])[O-].[Cu+2] [Complex 3, [Cu(DMOT)(NO3)]] | no antifungal activity | 15 | 24 | 12 | 13 | 312.5 | 78.125 | 1250 | 1250 | no antifungal activity |  | 
CC(=NNc1nc(N2CCOCC2)nc(N2CCOCC2)n1)c1ccccc1N [DMAT, 2-(1-(2-(4,6-dimorpholino-1,3,5-triazin-2-yl)hydrazono)ethyl)aniline] |  |  |  |  |  |  |  |  |  |  | 716 | viability at 24 h, 2.5 µM ([12]; MRC-5, Table S10): 100%; viability at 24 h, 5 µM ([12]; MRC-5, Table S10): 100%; viability at 24 h, 9.8 µM ([12]; MRC-5, Table S10): 100%; viability at 24 h, 19.6 µM ([12]; MRC-5, sample conc. 19.6 µM, Table S10): 100%; viability at 24 h, 39.1 µM ([12]; MRC-5, Table S10): 100%; viability at 24 h, 78.4 µM ([12]; MRC-5, sample conc. 78.4 µM, Table S10): 100%; viability at 24 h, 156.8 µM ([12]; MRC-5, sample conc. 156.8 µM, Table S10): 99.8%; viability at 24 h, 313.7 µM ([12]; MRC-5, sample conc. 313.7 µM, Table S10): 89.3%; viability at 24 h, 627.4 µM ([12]; MRC-5, sample conc. 627.4 µM, Table S10): 53.9%; viability at 24 h, 1254.8 µM ([12]; MRC-5, sample conc. 1254.8 µM, Table S10): 26.1%
CC(=NNc1nc(N2CCOCC2)nc(N2CCOCC2)n1)c1ccccc1O [DMOHT, 2-(1-(2-(4,6-dimorpholino-1,3,5-triazin-2-yl)hydrazono)ethyl)phenol] |  |  |  |  |  |  |  |  |  |  | 1000 | viability at 24 h, 2.5 µM ([12]; MRC-5, Table S12): 100%; viability at 24 h, 5 µM ([12]; MRC-5, Table S12): 100%; viability at 24 h, 9.8 µM ([12]; MRC-5, Table S12): 100%; viability at 24 h, 19.5 µM ([12]; MRC-5, sample conc. 19.5 µM, Table S12): 100%; viability at 24 h, 39.1 µM ([12]; MRC-5, Table S12): 100%; viability at 24 h, 78.2 µM ([12]; MRC-5, sample conc. 78.2 µM, Table S12): 100%; viability at 24 h, 156.5 µM ([12]; MRC-5, sample conc. 156.5 µM, Table S12): 97.9%; viability at 24 h, 312.9 µM ([12]; MRC-5, sample conc. 312.9 µM, Table S12): 89.6%; viability at 24 h, 625.8 µM ([12]; MRC-5, sample conc. 625.8 µM, Table S12): 67.6%; viability at 24 h, 1251.7 µM ([12]; MRC-5, sample conc. 1251.7 µM, Table S12): 38.2%
